Experiment: gradient 5% acetonitrile 3 min, to 50% in 2 min, to 85% in 15 min, held 3 min, 100 µL/min
Details: column: Zorbax Extend-C18 2.1 x 50 mm; eluents: water / acetonitrile, 0.1% formic acid
Summary of the method: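 Using water and acetonitrile that each contained 0.1% formic acid, mixtures of ~100 pure standards were separated at 100 μL/min on a Zorbax Extend-C18 column (2.1 × 50 mm, 1.8 μm). The HPLC fed a quadrupole time-of-flight mass spectrometer working in positive and negative ionization mode, with dead and dwell volumes of 40 μL and 900 μL. Data were acquired over 3 months. Retention time was read from computationally picked adduct peaks after manual inspection of each.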

RP-LC retention time [s]	SMILES
672	CCC(=O)Nc1ccc2c(c1)CN(C(=O)c1ccccc1F)C(C(=O)N1CCCC1)C2 (stereo unspecified)
966	CCCCCCCCc1ccc(CCC(N)(CO)CO)cc1
657	COC1CCC12CCN(C(=O)c1cnccn1)CC2 (stereo unspecified)
785	O=C(NCc1cccc(Cl)c1)c1ccc(CN2CCN(C3CCCC3)C(=O)C2=O)cc1
791	CCNC(=O)c1cc2cc(C)ccc2[nH]1
984	COc1cc(NC(=O)C2CCCN(c3nccnc3Sc3ccccc3)C2)cc(OC)c1OC (stereo unspecified)
748	COC(=O)c1c(C)[nH]c(C(=O)N2CCC(CC(=O)NCc3cccc(C)c3)CC2)c1C
910	O=C(COc1ccc(Cl)cc1)NCC(=O)N1CCCc2ccccc21
631	Cn1c(N2CCC(C(=O)NCCCN3CCC(Cc4ccccc4)CC3)CC2)cc(=O)n(C)c1=O
680	CCCNc1cc(N2CCC(CCC(=O)NCc3ccccc3F)CC2)ncn1
578	Cn1cc(CC(=O)NCC#CCN2CCc3ccccc3C2)c2ccccc21
1010	Cc1cc(=O)n(CC(=O)Nc2cc(F)ccc2F)c(-c2ccccc2)n1
726	COC(=O)c1c(C)[nH]c(C(=O)N2CCCC(C(=O)N(C)Cc3ccco3)C2)c1C (stereo unspecified)
1090	Cc1ccc(-c2csc3c(=O)n(CC(=O)OC(C)(C)C)cnc23)cc1
760	Cc1noc2nc(CCC(=O)NCCCc3ccccc3)nc(N3CCOCC3)c12
712	CCn1nc(C)c2ccnc(N3CCC(C(=O)N4CCN(c5cccc(OC)c5)CC4)CC3)c21
736	CCC(C)C(NC(=O)Cc1ccccc1F)C(=O)Nc1nc2ccccc2[nH]1 (stereo unspecified)
795	CN1C(=O)C(C)(C(=O)NCc2ccccc2Cl)Oc2cccnc21 (stereo unspecified)
600	Nc1nc(Cl)nc2c1ncn2[C@@H]1O[C@H](CO)[C@@H](O)[C@@H]1F
1130	Cc1ccc(N2CC(c3nc(-c4ccccc4C)no3)CC2=O)cc1F (stereo unspecified)
644	CC(NC(=O)C1CCN(c2cc(N3CCCC3)ncn2)CC1)c1ccccc1 (stereo unspecified)
1030	CCc1nc(-c2cc(S(=O)(=O)N3CCC(C(=O)N4CCCCCC4)CC3)c(C)s2)no1
849	Cc1ccc2nc(NC(=O)C3CCN(S(=O)(=O)c4cn(C(C)C)cn4)CC3)sc2c1

RP-LC retention time [s]	SMILES
614	CC(C)CN1CCN(C(=O)C2CCCN(c3nnc4ccc(C(F)(F)F)cn34)C2)CC1 (stereo unspecified)
926	O=C(c1cc2ccccc2[nH]1)N1CCN(c2ccc(=O)n(-c3cccc(Cl)c3)n2)CC1
806	COC1CN(c2cccc(F)c2)C12CCN(CC1CCCCC1)CC2 (stereo unspecified)
752	CCN(CC)C(=O)CSc1c(C)cnc2c1c(=O)n(C)c(=O)n2C
911	O=C(NCCC1=CCCCC1)C1CCN(C(=O)c2ncn3c2COC(c2ccc(Cl)cc2)C3)CC1 (stereo unspecified)
770	N#CCCN(c1ccc(C=O)cc1)S(=O)(=O)c1ccccc1
769	CCc1nnc(NS(=O)(=O)c2ccc(NC(=O)c3ccc([N+](=O)[O-])s3)cc2)s1
706	NC(=O)c1ccsc1NC(=O)c1c(F)cccc1Cl
779	COc1cc(NC(=O)c2c(OC)cc(=O)n3c2CCCC3)cc(OC)c1OC
627	COC(=O)c1cnc2nc(C)ccc2c1Nc1ccccc1
682	Cc1ccc(-c2cn3cccnc3n2)cc1NC(=O)c1ccccc1Br
785	Cn1c(=O)c(SCC(=O)NCc2ccccc2F)nc2ccccc21
615	Cc1cc(C)cc(C(=O)NCc2ccc3c(c2)ncn3C)c1
835	CCc1cc(C2CCCN2C(=O)Nc2cccc(OC)c2)on1 (stereo unspecified)
664	Cn1cc(-c2ccncc2)cc1C(=O)NCc1ccc(F)c(Cl)c1
630	O=C1CCCc2c1cc(C(=O)NCc1ccccn1)c(=O)n2-c1ccc(F)cc1
989	Cc1cccc(NC(=O)CSc2nnc3c4cc(-c5ccc(C)c(C)c5)nn4ccn23)c1
627	Cc1ccc(NC(=O)N2CCN(c3cnn4cnnc4c3)CC2)cc1
588	O=C(NCc1cccnc1)C(=O)NCc1ccc2c(c1)OCO2
724	COc1cc(-c2nc3ncccn3c2NC2CCCCC2)cc(OC)c1OC
634	Cc1ncoc1C(=O)N1CCC(N2C(=O)C(OCC3CC3)C23CCOCC3)CC1 (stereo unspecified)
592	CC(C)(Oc1ccc(Cl)cc1)C(=O)NCCN1CCN(C(=O)c2cccs2)CC1
990	Cn1nccc1C(=O)N1CCc2cc(-c3csc(C4CC4)n3)ccc21

RP-LC retention time [s]	SMILES
542	O=C(NCCCN1CCCC1)C1CCN(c2cnc(N3CCCC3)nc2)CC1
833	CCOC(=O)c1c(NCCc2c[nH]c3ccccc23)c2ccc(Cl)cc2[nH]c1=O
682	CCCCS(=O)(=O)N1CCC(C2CCN(C(=O)NC)CC2)C1 (stereo unspecified)
1000	Cc1ccccc1-c1noc(CCn2nc(-c3ccccc3)ccc2=O)n1
681	Cc1ccc(CC(=O)N2CCc3c(c(C(=O)N4CCCC(C(=O)NC5CC5)C4)nn3C)C2)cc1 (stereo unspecified)
870	Cn1c(=O)c(=O)n(C)c2cc(Oc3ccccc3)c(NC(=O)C3CCCCC3)cc21
894	CCOc1ccccc1CNc1nccc(-n2nc(C)cc2C)n1
1130	CCCCCn1c(=O)c2ccccc2n(Cc2nc(-c3ccccc3OC)no2)c1=O
962	COc1ccccc1-c1nc(C2CCN(C(=O)C3COc4ccccc4O3)CC2)no1 (stereo unspecified)
645	CCc1nc(-c2csc(S(=O)(=O)N3CCC(C(=O)NCc4cccnc4)CC3)c2)no1
767	Cc1ccccc1Nc1c(-c2ccc(N(C)C)cc2)nc2ccccn12
659	O=C(Cc1ccc(NC(=O)C2CC2)cc1)NCc1cccs1
604	O=C(c1ccc(-c2ccsc2)nc1)N1CCN(c2ccccn2)CC1
583	Cc1cc(C(=O)NCCCN2CCOCC2)c2cc(Br)ccc2n1
1140	Cc1ccc(NC(=O)Cn2nc(N3CCC(C)CC3)c3ccccc3c2=O)cc1
1210	CCN1C(=O)C2(CCN(S(=O)(=O)c3ccc(C(C)C)cc3)CC2)c2ccccc21
655	Cc1nn(C(C)C(=O)NCCCN(C)c2ccccc2)c(=O)c2c(C)n(-c3ccccc3)nc12 (stereo unspecified)
859	CCc1noc(NC(C)=O)c1-c1ccc(C)c(S(=O)(=O)Nc2cc(Cl)c(OC)cc2OC)c1
760	Cc1nc(-c2ccc3c(c2)CCN3C(=O)C2CCOC2)cs1 (stereo unspecified)
604	CS(=O)(=O)N1CCC(C(=O)Nc2nc3c(s2)COCC3)CC1
617	Cc1cnn(CC(=O)N2CCc3nn(CC4CC4)c(=O)n3CC2)c1
598	CCc1ccccc1NC(=O)Cn1c(N)nc(COC)cc1=O
750	COc1ccccc1-c1noc(C2CCCN2C(=O)c2sc(C)nc2C)n1 (stereo unspecified)

RP-LC retention time [s]	SMILES
711	O=C(Cc1cccs1)NCc1nnnn1-c1ccc(F)c(F)c1
722	COCC(=O)NC1CCC12CCN(C(=O)CC1CCCC1)CC2 (stereo unspecified)
963	CCCn1cc(CCNC(=O)Nc2cc(Cl)ccc2Cl)c2cccnc21
1020	O=C(Nc1ccc(N2CCN(c3ccccc3)C2=O)nc1)c1cc(F)cc(F)c1
822	CCOC(=O)c1cc(S(=O)(=O)N2CCCC2C(=O)N2CCCCCC2)cn1C (stereo unspecified)
1100	Cc1ccc(C(=O)Nc2cccc(OCc3nnc(-c4ccc(Cl)cc4)o3)c2)s1
1150	COc1cc(OC)c(NS(=O)(=O)c2cc(-c3cc(C(F)(F)F)on3)sc2C)cc1Cl
663	COc1ccc(-n2ccn3c(CCC(=O)N4CCN(c5ccccn5)CC4)nnc3c2=O)cc1
809	CCCN(C(=O)c1ccc(C)cc1)c1nc(-c2ccccc2)cs1
853	CCOCCn1c(=O)c2c(nc3n2CC(C)CN3c2ccc(OC)cc2)n(C)c1=O (stereo unspecified)
970	O=C(NC1CC1)C1CCN(c2ncccc2-c2nc(-c3ccc(Cl)cc3)no2)CC1
821	CCCN1C(=O)c2c(C(=O)NCc3cccc(F)c3)ncn2CC1(C)C(=O)NC1CCCC1 (stereo unspecified)
626	CCN(CCNC(=O)CCc1cc2cc(OC)ccc2[nH]c1=O)Cc1ccccc1
679	CC(C)(C)NC(=O)N1CCC(CNC(=O)c2ccc3nsnc3c2)CC1
590	CCc1nc2cc(N3CCC(C(=O)N4CCN(CC)CC4)CC3)cnc2nc1CC
662	COc1cc(NC(=O)N2CC(c3nc(C(C)C)nn3C)C2)cc(OC)c1
1030	CSc1ccc(CNC(=O)C2CCCN(c3nccn4nc(-c5ccc(C)cc5C)cc34)C2)cc1 (stereo unspecified)
642	COc1ncccc1C(=O)Nc1onc2c1CSC2
922	CCCCn1cc(S(=O)(=O)Nc2ccccc2F)c2cccnc21
793	CCc1ccc(CNC(=O)C2CCN(Cc3cn(C)c4ccc(Cl)cc34)CC2)cc1
671	CCOC(=O)c1c(C)oc2ncnc(NCc3ccccn3)c12

SMILES	RP-LC retention time [s]
CCCN(CCC)C1CCc2cccc(OC)c2C1 (stereo unspecified)	762
